Results: ChEMBL document CHEMBL1158987, “Isolation and structure determination of novel phosphatidylinositol kinase inhibitors, echiguanines A and B, from Streptomyces sp” (J Nat Prod, 1991)
In brackets after ≈: the same amount, converted by molar mass.

Experiments:
[1] = Inhibition of phosphatidylinositol 4-kinase in human A431 cell membrane by liquid scintillation counting; format: cell-based; conditions: a-431
[2] = Toxicity in ip dosed mouse; format: organism-based; conditions: in vivo

Row | Compound | IC50 [1] [µg/mL] | LD50 [2] [mg/kg]
1 | O=Cc1cccc(O)c1O | 0.45 (≈ 3.26 µM) | 
2 | Nc1nc2c(c(=O)[nH]1)CC=N2 [7-DEAZAGUANINE] | 35 (≈ 233 µM) | 
3 | Nc1[nH]cnc2ncnc1-2 [ADENINE] | > 100 | 
4 | N=C(N)CCNC(=O)c1c[nH]c2nc(N)nc(O)c12 [ECHIGUANINE A] | 0.04 (≈ 0.152 µM) | > 100
5 | NCCCNC(=O)c1c[nH]c2nc(N)nc(O)c12 [ECHIGUANINE B] | 0.11 (≈ 0.44 µM) | > 100
6 | Nc1nc2[nH]cnc2c(=O)[nH]1 [GUANINE] | > 100 | 
7 | O=c1[nH]cnc2nc[nH]c12 [HYPOXANTHINE] | > 100 | 
8 | Nc1nc(=O)[nH]c2nc[nH]c12 [ISOGUANINE] | > 100 | 
9 | O=c1c(-c2ccc(O)c(O)c2)coc2cc(O)cc(O)c12 [OROBOL] | 0.25 (≈ 0.873 µM) | 
10 | O=c1c(O)c(-c2ccc(O)c(O)c2)oc2cc(O)cc(O)c12 [QUERCETIN] | 1.8 (≈ 5.96 µM) | 
11 | N#Cc1cn([C@@H]2O[C@H](CO)[C@@H](O)[C@H]2O)c2ncnc(N)c12 [TOYOCAMYCIN] | 3.3 (≈ 11.3 µM) | 
